Laboratory results from ChEMBL document CHEMBL2074111, “Functional characterization of the rat mdr1b encoded P-glycoprotein: not all inducing agents are substrates” (Carcinogenesis, 1997).

Target: ATP-dependent translocase ABCB1 (Rattus norvegicus, UniProt P43245)
Assay: TP_TRANSPORTER: intracellular accumulation in mdr1b-expressing NIH3T3 cells
Assay type: functional, cell-based
Details: mouse

Chain of ATP-dependent translocase ABCB1 (P43245 whole entry): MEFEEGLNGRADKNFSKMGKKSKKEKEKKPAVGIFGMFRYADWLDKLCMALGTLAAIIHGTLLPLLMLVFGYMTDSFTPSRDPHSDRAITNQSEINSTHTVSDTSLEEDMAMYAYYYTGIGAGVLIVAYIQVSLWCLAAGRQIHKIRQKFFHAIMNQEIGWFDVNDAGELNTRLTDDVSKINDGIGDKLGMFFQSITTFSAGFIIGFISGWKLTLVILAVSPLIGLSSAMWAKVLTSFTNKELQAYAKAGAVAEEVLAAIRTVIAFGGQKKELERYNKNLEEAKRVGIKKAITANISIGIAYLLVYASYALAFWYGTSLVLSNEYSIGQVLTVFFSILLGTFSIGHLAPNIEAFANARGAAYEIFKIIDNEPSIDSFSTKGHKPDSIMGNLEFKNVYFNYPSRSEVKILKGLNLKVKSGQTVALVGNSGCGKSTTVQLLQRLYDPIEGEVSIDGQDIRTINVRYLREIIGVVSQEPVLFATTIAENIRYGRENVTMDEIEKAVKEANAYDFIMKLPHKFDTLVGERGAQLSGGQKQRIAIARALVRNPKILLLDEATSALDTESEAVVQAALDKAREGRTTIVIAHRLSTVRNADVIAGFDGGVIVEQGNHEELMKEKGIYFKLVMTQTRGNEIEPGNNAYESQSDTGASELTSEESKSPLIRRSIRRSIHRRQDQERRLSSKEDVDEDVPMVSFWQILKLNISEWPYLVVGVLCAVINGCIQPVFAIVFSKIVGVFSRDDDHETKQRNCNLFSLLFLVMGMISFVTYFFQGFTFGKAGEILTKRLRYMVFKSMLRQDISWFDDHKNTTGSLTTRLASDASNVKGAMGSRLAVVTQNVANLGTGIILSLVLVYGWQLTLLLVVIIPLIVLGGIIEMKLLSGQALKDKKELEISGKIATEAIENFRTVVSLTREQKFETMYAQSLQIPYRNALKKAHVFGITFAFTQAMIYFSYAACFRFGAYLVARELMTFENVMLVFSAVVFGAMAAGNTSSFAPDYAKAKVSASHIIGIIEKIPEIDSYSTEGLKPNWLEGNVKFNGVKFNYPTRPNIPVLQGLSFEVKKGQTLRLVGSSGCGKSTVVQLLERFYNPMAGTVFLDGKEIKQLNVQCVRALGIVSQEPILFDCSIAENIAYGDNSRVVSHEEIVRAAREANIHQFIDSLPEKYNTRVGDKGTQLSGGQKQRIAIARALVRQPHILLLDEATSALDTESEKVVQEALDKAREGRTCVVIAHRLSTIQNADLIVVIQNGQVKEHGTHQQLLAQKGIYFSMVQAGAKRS

- Activity: substrate [+]
SMILES: COC(=O)c1ccccc1-c1c2ccc(=N)cc-2oc2cc(N)ccc12.Cl [RHODAMINE123]
